Data taken from ChEMBL document CHEMBL5725623, “4-azaindole derivatives” (2018).

Assay: Positive allosteric modulator pEC50 values and antagonist pIC50 values for each compound were then determined. […] Data analysis was carried out using a 4 parameter logistic nonlinear regression model with the XLFIT (IDBS) excel add-in10. 1-10 Examples 76-80 and 82-89 were tested in a slightly modified procedure. The points of modification and the alternate reagents, concentrations or equipment employed in these examples were: 1200 μg/ml hygromycin B; 2G418 not added; 3CELLBANKER 1; 410E6; 5 40 μl; 6 1 in 99; 7 20 μl; 8FDSS6000 (Hamamatsu Photonics); 9(480Ex, 540Em); 10Spotfire (TIBCO).As measured by the above in vitro assay, compound Examples 1 to 105 are positive allosteric modulators of mAChR M1 displaying the pEC50 values for positive allosteric modulation given in Table 2.
Settings: 0.5 h
Work on `COc1ccc(Cn2cc(C(=O)NC3CCOC[C@@H]3O)c3nccc(C)c32)cc1` (stereo partly specified) yielded an EC50 of 10 nM. For `COc1ccc(Cn2cc(C(=O)NC3CCOC[C@@H]3O)c3nccc(C)c32)cc1F` (stereo partly specified), the EC50 was 12.6 nM. In the case of `COc1cc(Cn2cc(C(=O)NC3CCOC[C@@H]3O)c3nccc(C)c32)ccn1` (stereo partly specified), the EC50 is reported as 50.1 nM. Work on `COc1ccc(Cn2cc(C(=O)NC3CCOC[C@@H]3O)c3nccc(Cl)c32)cc1` (stereo partly specified) yielded an EC50 of 12.6 nM. `O=C(NC1CCC(F)(F)C[C@H]1O)c1cn(Cc2ccc(F)cc2)c2cccnc12` (stereo partly specified) showed an EC50 of 794 nM. `Cc1ccnc2c(C(=O)NC3CCOC[C@@H]3O)cn(Cc3ccc(F)cc3)c12` (stereo partly specified) showed an EC50 of 15.8 nM.
